# From US20250188057A1, “NON-AROMATIC CYCLIC-PYRIMIDINE ANALOGS AS GLUCOSYLCERAMIDE SYNTHASE INHIBITORS” (Merck Sharp & Dohme LLC, priority 2022, published 2025)
# Biological target: glucosylceramide synthase (GCS) (Homo sapiens (Human), UniProt Q16739)
# Assay: UDP-Glo glucosylceramide synthase biochemical assay
# Conditions: endogenous GCS in Golgi preparations isolated from human A375 malignant melanoma skin cells; UDP detection by luminescence
# In short: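 Endogenous GCS in A375 Golgi preparations (1.5 μg total protein) was preincubated with compound for 30 min at RT, then reacted with UDP-glucose and ceramide for 20 h at RT. UDP was detected by luciferase luminescence, normalized to DMSO and reference-inhibitor controls, with EC50 and % Emax from a 4PL fit.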
# glucosylceramide synthase (GCS), sequence (Q16739 whole entry): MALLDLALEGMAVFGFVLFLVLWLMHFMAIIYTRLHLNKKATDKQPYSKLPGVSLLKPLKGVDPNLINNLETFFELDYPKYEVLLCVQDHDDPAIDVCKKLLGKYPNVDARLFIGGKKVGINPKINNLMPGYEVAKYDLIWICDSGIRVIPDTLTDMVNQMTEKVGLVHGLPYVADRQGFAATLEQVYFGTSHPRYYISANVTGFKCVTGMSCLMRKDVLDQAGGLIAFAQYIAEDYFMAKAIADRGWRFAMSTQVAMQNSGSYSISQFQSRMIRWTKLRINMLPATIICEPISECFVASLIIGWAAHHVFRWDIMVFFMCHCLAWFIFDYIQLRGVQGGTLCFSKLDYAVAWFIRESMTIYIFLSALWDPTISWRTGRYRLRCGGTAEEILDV
row,SMILES,IC50 [nM]
1,"N#Cc1cnc(C2CC2)nc1NC1CCCc2sc(C3CCCC3)nc21 (stereo not shown) [Compound 95, 4-((2-cyclopentyl-4,5,6,7-tetrahydrobenzo[d]thiazol-4-yl)amino)-2-cyclopropylpyrimidine-5-carbonitrile]",19
2,"N#Cc1cnc(C2CC2)nc1NC1CCCc2sc(C3CCC3)nc21 (stereo not shown) [Compound 96, 4-((2-cyclobutyl-4,5,67-tetrahydrobenzo[d]thiazol-4-yl)amino)-2-cyclopropylpyrimidine-5-carbonitrile]",46
3,"N#Cc1cnc(C2CC2)nc1OC1CCc2ccc(OC(F)(F)F)cc21 (stereo not shown) [Compound 97, 2-cyclopropyl-4-((6-(trifluoromethoxy)-2,3-dihydro-1H-inden-1-yl)oxy)pyrimidine-5-carbonitrile]",18
4,"N#Cc1cnc(C2CC2)nc1OC1CCc2ccc(C(F)(F)F)cc21 (stereo not shown) [Compound 98, 2-cyclopropyl-4-((6-(trifluoromethyl)-2,3-dihydro-1H-inden-1-yl)oxy)pyrimidine-5-carbonitrile]",23
5,"N#Cc1cnc(C2CC2)nc1OCC1CCN(c2ccccc2)C1 (stereo not shown) [Compound 100, 2-cyclopropyl-4-((1-phenylpyrrolidin-3-yl)methoxy)pyrimidine-5-carbonitrile]",160
6,"N#Cc1cnc(C2CC2)nc1OCC1CCC(c2ccccc2)O1 (stereo not shown) [Compound 102, 2-cyclopropyl-4-((5-phenyltetrahydrofuran-2-yl)methoxy)pyrimidin-5-carbonitrile]",195
7,"N#Cc1cnc(C2CC2)nc1OCC12CC(COCc3ccccc3)(CO1)C2 [Compound 103, 4-((4-((benzyloxy)methyl)-2-oxabicyclo[2.1.1]hexan-1-yl)methoxy)-2-cyclopropylpyrimidine-5-carbonitrile]",2080
8,"N#Cc1cnc(C2CC2)nc1OCC1CCCN1Cc1ccc(F)cc1 (stereo not shown) [Compound 104, 2-cyclopropyl-4-((1-(4-fluorobenzyl)pyrrolidin-2-yl)methoxy)pyrimidine-5-carbonitrile]",1870
9,"COc1ccc(N2CCC(Oc3nc(C4CC4)ncc3C#N)C2)cc1 (stereo not shown) [Compound 105, 2-cyclopropyl-4-((1-(4-methoxyphenyl)pyrrolidin-3-yl)oxy)pyrimidine-5-carbonitrile]",321

# The remaining lines, values ahead:
row,IC50 [nM],SMILES
1,1330,"N#Cc1cnc(C2CC2)nc1OCC1CCCN1Cc1ccccc1Cl (stereo not shown) [Compound 106, 4-((1-(2-chlorobenzyl)pyrrolidin-2-yl)methoxy)-2-cyclopropylpyrimidine-5-carbonitrile]"
2,67,"COc1ccc(N2CCC(COc3nc(C4CC4)ncc3C#N)C2)cc1 (stereo not shown) [Compound 107, 2-cyclopropyl-4-((1-(4-methoxyphenyl)pyrrolidin-3-yl)methoxy)pyrimidine-5-carbonitrile]"
3,3970,"N#Cc1cnc(C2CC2)nc1OC[C@H]1CCN(C2CCC(F)(F)CC2)C1 [Compound 108, (S)-2-cyclopropyl-4-((1-(4,4-difluorocyclohexyl)pyrrolidin-3-yl)methoxy)pyrimidine-5-carbonitrile]"
4,593,"Cc1nc2c(s1)CCCC2Nc1nc(C2CC2)nc(Cl)c1CO (stereo not shown) [Compound 109, (4-chloro-2-cyclopropyl-6-((2-methyl-4,5,6,7-tetrahydrobenzo[d]thiazol-4-yl)amino)pyrimidin-5-yl)methanol]"
5,3260,"OCc1c(Cl)nc(C2CC2)nc1N1Cc2nc(Br)sc2C1 [Compound 111, (4-(2-bromo-4,6-dihydro-5H-pyrrolo[3,4-d]thiazol-5-yl)-6-chloro-2-cyclopropylpyrimidin-5-yl)methanol]"
6,2330,"OCc1c(Cl)nc(C2CC2)nc1N1Cc2nc(-c3ccccc3)oc2C1 [Compound 112, (4-chloro-2-cyclopropyl-6-(2-phenyl-4,6-dihydro-5H-pyrrolo[3,4-d]oxazol-5-yl)pyrimidin-5-yl)methanol]"
7,750,"OCc1c(Cl)nc(C2CC2)nc1N1CCC[C@@H]1c1ncc(-c2ccccc2)s1 [Compound 113, (R)-(4-chloro-2-cyclopropyl-6-(2-(5-phenylthiazol-2-yl)pyrrolidin-1-yl)pyrimidin-5-yl)methanol]"
